Reference: the kinase profiling compilation of Christmann-Franck et al. (2016)

Key:
Assay in all cases: radiometric filter-binding kinase assay
[1] = target: AURKB (human) (UniProt Q96GD4)
[2] = target: CAMKK2 (human) (UniProt Q96RR4)
[3] = target: CSK (human) (UniProt P41240)
[4] = target: CSNK1D (human) (UniProt P48730)
[5] = target: CaMK1 (human) (UniProt Q14012)
[6] = target: DYRK1A (human) (UniProt Q13627)
[7] = target: DYRK2 (human) (UniProt Q92630)
[8] = target: HIPK2 (human) (UniProt Q9H2X6)
[9] = target: IKBKB (human) (UniProt O14920)
[10] = target: MAPK12 (human) (UniProt P53778)
Chain of MAPK12 (human) (P53778 whole entry, looked up): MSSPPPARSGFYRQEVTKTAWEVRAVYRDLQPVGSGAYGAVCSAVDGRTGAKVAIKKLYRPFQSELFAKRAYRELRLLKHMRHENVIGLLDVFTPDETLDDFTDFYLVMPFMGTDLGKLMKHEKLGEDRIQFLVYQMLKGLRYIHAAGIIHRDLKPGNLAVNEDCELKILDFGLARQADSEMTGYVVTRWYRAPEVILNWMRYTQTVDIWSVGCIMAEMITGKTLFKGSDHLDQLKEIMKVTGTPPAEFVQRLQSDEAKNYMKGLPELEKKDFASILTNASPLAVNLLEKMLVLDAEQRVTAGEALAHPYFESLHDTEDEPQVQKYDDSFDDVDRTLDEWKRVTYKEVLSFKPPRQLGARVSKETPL

[11] = target: MAPK14 (human) (UniProt Q16539)
Chain of MAPK14 (human) (Q16539 whole entry, looked up): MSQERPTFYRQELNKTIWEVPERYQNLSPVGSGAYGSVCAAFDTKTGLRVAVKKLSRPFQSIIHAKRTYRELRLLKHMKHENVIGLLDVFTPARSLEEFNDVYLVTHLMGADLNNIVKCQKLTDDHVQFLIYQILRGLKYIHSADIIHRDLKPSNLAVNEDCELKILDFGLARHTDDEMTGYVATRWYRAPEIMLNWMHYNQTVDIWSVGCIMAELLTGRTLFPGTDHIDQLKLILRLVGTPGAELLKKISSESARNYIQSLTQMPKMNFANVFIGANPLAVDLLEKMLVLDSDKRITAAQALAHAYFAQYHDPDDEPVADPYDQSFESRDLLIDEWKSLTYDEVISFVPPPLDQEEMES

[12] = target: MAPK15 (human) (UniProt Q8TD08)
[13] = target: MAPK8 (human) (UniProt P45983)
[14] = target: MAPK9 (human) (UniProt P45984)
[15] = target: MAPKAPK2 (human) (UniProt P49137)
Chain of MAPKAPK2 (human) (P49137 whole entry, looked up): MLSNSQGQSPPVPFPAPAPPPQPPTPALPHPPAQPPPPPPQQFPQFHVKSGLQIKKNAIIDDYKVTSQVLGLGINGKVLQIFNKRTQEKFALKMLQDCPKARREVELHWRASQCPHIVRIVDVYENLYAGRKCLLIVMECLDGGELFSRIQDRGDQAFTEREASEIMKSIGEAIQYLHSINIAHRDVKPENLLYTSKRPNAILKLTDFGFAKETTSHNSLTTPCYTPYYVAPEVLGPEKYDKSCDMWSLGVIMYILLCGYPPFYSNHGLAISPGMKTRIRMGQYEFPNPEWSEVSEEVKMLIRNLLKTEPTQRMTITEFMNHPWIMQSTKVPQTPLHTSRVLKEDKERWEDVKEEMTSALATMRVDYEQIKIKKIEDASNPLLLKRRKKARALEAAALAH

[16] = target: MAPKAPK5 (human) (UniProt Q8IW41)
[17] = target: MELK (human) (UniProt Q14680)
Chain of MELK (human) (Q14680 whole entry, looked up): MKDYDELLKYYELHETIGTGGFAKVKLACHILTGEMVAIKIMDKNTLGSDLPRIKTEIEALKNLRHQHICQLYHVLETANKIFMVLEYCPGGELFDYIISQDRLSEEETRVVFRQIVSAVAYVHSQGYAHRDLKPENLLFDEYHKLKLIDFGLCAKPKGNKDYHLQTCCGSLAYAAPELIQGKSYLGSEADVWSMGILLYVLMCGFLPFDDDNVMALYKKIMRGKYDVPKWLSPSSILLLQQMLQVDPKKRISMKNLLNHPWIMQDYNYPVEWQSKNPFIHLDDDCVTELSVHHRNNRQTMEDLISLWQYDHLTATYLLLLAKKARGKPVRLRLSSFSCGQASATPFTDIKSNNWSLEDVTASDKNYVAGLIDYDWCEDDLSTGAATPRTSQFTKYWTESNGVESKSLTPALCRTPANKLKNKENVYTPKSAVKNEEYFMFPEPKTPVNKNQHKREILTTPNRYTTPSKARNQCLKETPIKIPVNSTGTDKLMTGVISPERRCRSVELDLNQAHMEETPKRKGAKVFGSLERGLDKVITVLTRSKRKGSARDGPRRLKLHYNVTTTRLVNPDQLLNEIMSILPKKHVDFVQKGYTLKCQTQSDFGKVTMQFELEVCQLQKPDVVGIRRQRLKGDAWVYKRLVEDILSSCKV

[18] = target: MKNK2 (human) (UniProt Q9HBH9)
Chain of MKNK2 (human) (Q9HBH9 whole entry, looked up): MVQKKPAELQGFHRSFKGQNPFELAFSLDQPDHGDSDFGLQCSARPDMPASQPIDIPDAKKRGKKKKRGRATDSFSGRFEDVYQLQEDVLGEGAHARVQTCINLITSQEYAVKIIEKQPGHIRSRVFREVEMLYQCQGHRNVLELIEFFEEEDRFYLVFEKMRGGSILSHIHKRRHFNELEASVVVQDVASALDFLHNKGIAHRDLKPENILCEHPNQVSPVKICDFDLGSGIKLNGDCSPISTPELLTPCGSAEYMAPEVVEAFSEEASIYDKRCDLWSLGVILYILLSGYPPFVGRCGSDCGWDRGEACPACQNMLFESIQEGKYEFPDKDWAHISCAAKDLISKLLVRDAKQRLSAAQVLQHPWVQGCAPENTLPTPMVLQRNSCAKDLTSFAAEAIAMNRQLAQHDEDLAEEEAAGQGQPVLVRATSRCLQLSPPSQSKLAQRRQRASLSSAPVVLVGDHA

[19] = target: PAK4 (human) (UniProt O96013)
[20] = target: PAK7 (human) (UniProt Q9P286)
[21] = target: PIM1 (human) (UniProt P11309)
Chain of PIM1 (human) (P11309 whole entry, looked up): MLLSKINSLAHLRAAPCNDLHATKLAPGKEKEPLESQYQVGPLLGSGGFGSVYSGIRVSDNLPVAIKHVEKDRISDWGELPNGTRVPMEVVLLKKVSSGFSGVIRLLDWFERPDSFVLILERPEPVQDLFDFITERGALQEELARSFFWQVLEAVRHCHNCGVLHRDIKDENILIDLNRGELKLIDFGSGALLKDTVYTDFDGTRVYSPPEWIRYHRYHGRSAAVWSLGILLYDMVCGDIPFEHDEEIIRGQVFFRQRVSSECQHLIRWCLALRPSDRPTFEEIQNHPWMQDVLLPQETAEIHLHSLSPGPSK

[22] = target: PRKACA (human) (UniProt P17612)

Chain of DYRK2 (human) (Q92630 whole entry, looked up): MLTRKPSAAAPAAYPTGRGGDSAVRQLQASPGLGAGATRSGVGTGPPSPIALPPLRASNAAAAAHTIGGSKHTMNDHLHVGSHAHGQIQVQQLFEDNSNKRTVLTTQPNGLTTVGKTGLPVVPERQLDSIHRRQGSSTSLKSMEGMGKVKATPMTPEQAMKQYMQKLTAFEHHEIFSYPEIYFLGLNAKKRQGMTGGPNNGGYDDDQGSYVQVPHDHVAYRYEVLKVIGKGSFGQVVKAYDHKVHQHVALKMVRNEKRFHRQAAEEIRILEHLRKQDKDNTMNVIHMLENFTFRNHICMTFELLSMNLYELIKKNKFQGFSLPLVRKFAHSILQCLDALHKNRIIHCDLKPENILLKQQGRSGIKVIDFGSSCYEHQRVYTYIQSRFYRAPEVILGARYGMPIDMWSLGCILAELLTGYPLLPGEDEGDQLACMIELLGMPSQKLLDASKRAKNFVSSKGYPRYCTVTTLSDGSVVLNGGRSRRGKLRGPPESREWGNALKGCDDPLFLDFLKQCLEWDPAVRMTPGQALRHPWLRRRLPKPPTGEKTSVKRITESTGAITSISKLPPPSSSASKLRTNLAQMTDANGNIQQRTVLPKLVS
Chain of CAMKK2 (human) (Q96RR4 whole entry, looked up): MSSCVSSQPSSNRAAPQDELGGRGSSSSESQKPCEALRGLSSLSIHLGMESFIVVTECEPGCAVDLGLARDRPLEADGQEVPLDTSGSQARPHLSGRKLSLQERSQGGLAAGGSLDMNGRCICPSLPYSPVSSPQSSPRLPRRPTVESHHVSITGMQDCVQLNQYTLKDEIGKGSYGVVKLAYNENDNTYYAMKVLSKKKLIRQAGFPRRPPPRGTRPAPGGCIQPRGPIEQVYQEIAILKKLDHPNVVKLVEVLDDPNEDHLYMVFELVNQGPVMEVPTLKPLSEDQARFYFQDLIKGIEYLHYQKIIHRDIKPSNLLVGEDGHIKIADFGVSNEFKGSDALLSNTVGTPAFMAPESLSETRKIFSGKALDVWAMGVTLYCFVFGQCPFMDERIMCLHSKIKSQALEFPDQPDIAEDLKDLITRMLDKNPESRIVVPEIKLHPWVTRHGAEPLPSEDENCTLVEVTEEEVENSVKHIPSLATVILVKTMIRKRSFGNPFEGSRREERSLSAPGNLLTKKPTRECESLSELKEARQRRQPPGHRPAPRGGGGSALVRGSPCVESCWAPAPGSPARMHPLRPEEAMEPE
Chain of CaMK1 (human) (Q14012 whole entry, looked up): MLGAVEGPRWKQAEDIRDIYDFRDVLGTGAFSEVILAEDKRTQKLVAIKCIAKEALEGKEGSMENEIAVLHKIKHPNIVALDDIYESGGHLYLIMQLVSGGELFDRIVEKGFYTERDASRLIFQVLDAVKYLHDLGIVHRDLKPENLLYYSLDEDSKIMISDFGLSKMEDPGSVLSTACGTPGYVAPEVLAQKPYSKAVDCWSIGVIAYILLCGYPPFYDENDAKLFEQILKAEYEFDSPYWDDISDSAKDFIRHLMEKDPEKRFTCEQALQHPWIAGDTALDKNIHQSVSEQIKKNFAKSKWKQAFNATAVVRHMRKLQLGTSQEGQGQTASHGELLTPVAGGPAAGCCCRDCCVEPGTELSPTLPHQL
Chain of CSNK1D (human) (P48730 whole entry, looked up): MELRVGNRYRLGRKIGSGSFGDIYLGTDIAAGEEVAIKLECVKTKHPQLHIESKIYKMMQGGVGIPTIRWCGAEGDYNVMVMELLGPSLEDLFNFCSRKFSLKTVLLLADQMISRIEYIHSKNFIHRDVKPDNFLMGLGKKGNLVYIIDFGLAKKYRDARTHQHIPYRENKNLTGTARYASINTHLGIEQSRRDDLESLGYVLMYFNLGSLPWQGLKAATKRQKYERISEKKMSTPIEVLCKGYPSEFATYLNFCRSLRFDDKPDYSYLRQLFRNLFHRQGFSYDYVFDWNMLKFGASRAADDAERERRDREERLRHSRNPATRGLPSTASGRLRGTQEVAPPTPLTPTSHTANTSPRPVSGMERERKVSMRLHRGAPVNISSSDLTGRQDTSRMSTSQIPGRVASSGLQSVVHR
Chain of AURKB (human) (Q96GD4 whole entry, looked up): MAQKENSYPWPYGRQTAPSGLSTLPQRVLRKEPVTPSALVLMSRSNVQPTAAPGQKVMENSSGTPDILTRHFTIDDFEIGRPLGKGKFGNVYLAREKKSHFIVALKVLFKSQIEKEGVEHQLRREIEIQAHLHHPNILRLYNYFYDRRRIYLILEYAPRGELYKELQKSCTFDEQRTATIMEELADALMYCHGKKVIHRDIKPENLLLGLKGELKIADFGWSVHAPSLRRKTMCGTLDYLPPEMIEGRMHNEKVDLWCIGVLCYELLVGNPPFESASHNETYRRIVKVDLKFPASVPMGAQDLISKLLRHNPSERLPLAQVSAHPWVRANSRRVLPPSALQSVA

## COc1ccc2c(c1)c1c3c(c4c5ccccc5n(C)c4c1n2CC(O)CN(C)C)C(=O)NC3=O (stereo not given)
[1]; compound 0.1 µM
  residual activity: 17%
[1]; compound 1.0 µM
  residual activity: 14%
[1]; compound 10.0 µM
  residual activity: 12%
[2]; compound 0.1 µM
  residual activity: 113%
[2]; compound 1.0 µM
  residual activity: 68%
[2]; compound 10.0 µM
  residual activity: 37%
[3]; compound 0.1 µM
  residual activity: 84%
[3]; compound 1.0 µM
  residual activity: 78%
[3]; compound 10.0 µM
  residual activity: 58%
[4]; compound 0.1 µM
  residual activity: 103%
[4]; compound 1.0 µM
  residual activity: 83%
[4]; compound 10.0 µM
  residual activity: 68%
[5]; compound 0.1 µM
  residual activity: 79%
[5]; compound 1.0 µM
  residual activity: 55%
[5]; compound 10.0 µM
  residual activity: 16%
[6]; compound 0.1 µM
  residual activity: 96%
[6]; compound 1.0 µM
  residual activity: 68%
[6]; compound 10.0 µM
  residual activity: 41%
[7]; compound 0.1 µM
  residual activity: 98%
[7]; compound 1.0 µM
  residual activity: 65%
[7]; compound 10.0 µM
  residual activity: 70%
[8]; compound 0.1 µM
  residual activity: 97%
[8]; compound 1.0 µM
  residual activity: 55%
[8]; compound 10.0 µM
  residual activity: 24%
[9]; compound 0.1 µM
  residual activity: 104%
[9]; compound 1.0 µM
  residual activity: 94%
[9]; compound 10.0 µM
  residual activity: 80%
[10]; compound 0.1 µM
  residual activity: 99%
[10]; compound 1.0 µM
  residual activity: 90%
[10]; compound 10.0 µM
  residual activity: 74%
[11]; compound 0.1 µM
  residual activity: 107%
[11]; compound 1.0 µM
  residual activity: 106%
[11]; compound 10.0 µM
  residual activity: 86%
[12]; compound 0.1 µM
  residual activity: 78%
[12]; compound 1.0 µM
  residual activity: 53%
[12]; compound 10.0 µM
  residual activity: 54%
[13]; compound 0.1 µM
  residual activity: 103%
[13]; compound 1.0 µM
  residual activity: 99%
[13]; compound 10.0 µM
  residual activity: 60%
[14]; compound 0.1 µM
  residual activity: 92%
[14]; compound 1.0 µM
  residual activity: 63%
[14]; compound 10.0 µM
  residual activity: 35%
[15]; compound 0.1 µM
  residual activity: 107%
[15]; compound 1.0 µM
  residual activity: 93%
[15]; compound 10.0 µM
  residual activity: 62%
[16]; compound 0.1 µM
  residual activity: 104%
[16]; compound 1.0 µM
  residual activity: 103%
[16]; compound 10.0 µM
  residual activity: 108%
[17]; compound 0.1 µM
  residual activity: 72%
[17]; compound 1.0 µM
  residual activity: 20%
[17]; compound 10.0 µM
  residual activity: 8%
[18]; compound 0.1 µM
  residual activity: 90%
[18]; compound 1.0 µM
  residual activity: 88%
[18]; compound 10.0 µM
  residual activity: 70%
[19]; compound 0.1 µM
  residual activity: 99%
[19]; compound 1.0 µM
  residual activity: 82%
[19]; compound 10.0 µM
  residual activity: 66%
[20]; compound 0.1 µM
  residual activity: 108%
[20]; compound 1.0 µM
  residual activity: 81%
[20]; compound 10.0 µM
  residual activity: 85%
[21]; compound 0.1 µM
  residual activity: 9%
[21]; compound 1.0 µM
  residual activity: 1%
[21]; compound 10.0 µM
  residual activity: 2%
[22]; compound 0.1 µM
  residual activity: 42%
[22]; compound 1.0 µM
  residual activity: 7%
[22]; compound 10.0 µM
  residual activity: 2%

## Cn1nc(Nc2ccc(F)cc2)c2c(N)ncnc21
[1]; compound 1.0 µM
  residual activity: 98%
[1]; compound 10.0 µM
  residual activity: 82%
[2]; compound 1.0 µM
  residual activity: 112%
[2]; compound 10.0 µM
  residual activity: 120%
[3]; compound 1.0 µM
  residual activity: 88%
[3]; compound 10.0 µM
  residual activity: 76%
[4]; compound 1.0 µM
  residual activity: 97%
[4]; compound 10.0 µM
  residual activity: 62%
[5]; compound 1.0 µM
  residual activity: 103%
[5]; compound 10.0 µM
  residual activity: 97%
[6]; compound 1.0 µM
  residual activity: 105%
[6]; compound 10.0 µM
  residual activity: 101%
[7]; compound 1.0 µM
  residual activity: 86%
[7]; compound 10.0 µM
  residual activity: 83%
[8]; compound 1.0 µM
  residual activity: 113%
[8]; compound 10.0 µM
  residual activity: 105%
[9]; compound 1.0 µM
  residual activity: 98%
[9]; compound 10.0 µM
  residual activity: 96%
[10]; compound 1.0 µM
  residual activity: 113%
[10]; compound 10.0 µM
  residual activity: 112%
[11]; compound 1.0 µM
  residual activity: 93%
[11]; compound 10.0 µM
  residual activity: 80%
[12]; compound 1.0 µM
  residual activity: 76%
[12]; compound 10.0 µM
  residual activity: 70%
[13]; compound 1.0 µM
  residual activity: 112%
[13]; compound 10.0 µM
  residual activity: 102%
[14]; compound 1.0 µM
  residual activity: 122%
[14]; compound 10.0 µM
  residual activity: 124%
[15]; compound 1.0 µM
  residual activity: 97%
[15]; compound 10.0 µM
  residual activity: 95%
[16]; compound 1.0 µM
  residual activity: 107%
[16]; compound 10.0 µM
  residual activity: 109%
[17]; compound 1.0 µM
  residual activity: 109%
[17]; compound 10.0 µM
  residual activity: 91%
[18]; compound 1.0 µM
  residual activity: 104%
[18]; compound 10.0 µM
  residual activity: 103%
[19]; compound 1.0 µM
  residual activity: 86%
[19]; compound 10.0 µM
  residual activity: 97%
[20]; compound 1.0 µM
  residual activity: 109%
[20]; compound 10.0 µM
  residual activity: 125%
[21]; compound 1.0 µM
  residual activity: 111%
[21]; compound 10.0 µM
  residual activity: 115%
[22]; compound 1.0 µM
  residual activity: 106%
[22]; compound 10.0 µM
  residual activity: 107%
